Data reported in patent US9580433B2 (Janssen Pharmaceutica NV, priority 2013, dated 2017).
Like-named read-outs stand apart in the source and are kept apart here.

Tests used:
BACE1 = biological target: T1, BACE1 (Homo sapiens, UniProt P56817); experiment: BACE1 biochemical FRET based assay
T1 construct: recombinant BACE1 protein in a final concentration of 0.04 g/ml

[1] = test system: Abeta 1-42 produced and secreted by SKNBE2 cells (BACE1); experiment: BACE1 cellular αLisa assay in SKNBE2 cells, Abeta 1-42; assay type: cell-based, human; conditions: SKNBE2 cells expressing hAPP695, 18 hours incubation; for IC50: Homo sapiens, SKNBE2, 18 h, read-out: Cellular αLisa assay in SKNBE2 cells Abeta 42 pIC50 (converted)
Procedure: (§1) BACE1 Cellular αLisa Assay in SKNBE2 Cells
(§2) In two αLisa assays the levels of Abeta total and Abeta 1-42 produced and secreted into the medium of human neuroblastoma SKNBE2 cells are quantified. The assay is based on the human neuroblastoma SKNBE2 expressing the wild type Amyloid Precursor Protein (hAPP695). The compounds are diluted and added to these cells, incubated for 18 hours and then measurements of Abeta 1-42 and Abeta total are taken. Abeta total and Abeta 1-42 are measured by sandwich αLisa. αLisa is a sandwich assay using biotinylated antibody AbN/25 attached to streptavidin coated beads and antibody Ab4G8 or cAb42/26 conjugated acceptor beads for the detection of Abeta total and Abeta 1-42 respectively. In the presence of Abeta total or Abeta 1-42, the beads come into close proximity. The excitation of the donor beads provokes the release of singlet oxygen molecules that trigger a cascade of energy transfer in the acceptor beads, resulting in light emission. Light emission is measured after 1 hour incubation (excitation at […] and emission at 615 nm).
(§3) A best-fit curve is fitted by a minimum sum of squares method to the plot of % Controlmin versus compound concentration.

[2] = test system: Abeta total produced and secreted by SKNBE2 cells (BACE1); experiment: BACE1 cellular αLisa assay in SKNBE2 cells, Abeta total; assay type: cell-based, human; conditions: SKNBE2 cells expressing hAPP695, 18 hours incubation; for IC50: Homo sapiens, SKNBE2, 18 h, read-out: Cellular αLisa assay in SKNBE2 cells Abetatotal pIC50 (converted)
Procedure: as §1, §2, §3

BACE2 = biological target: T2, BACE2 (Homo sapiens, UniProt Q9Y5Z0); experiment: BACE2 biochemical FRET based assay; conditions: recombinant BACE2, 450 min, pH 5.0; read-out: BACE2 Biochemical FRET based assay pIC50 (converted)
T2 construct: recombinant BACE2 protein in a final concentration of 0.4 μg/ml
T2 sequence (Q9Y5Z0 63-518): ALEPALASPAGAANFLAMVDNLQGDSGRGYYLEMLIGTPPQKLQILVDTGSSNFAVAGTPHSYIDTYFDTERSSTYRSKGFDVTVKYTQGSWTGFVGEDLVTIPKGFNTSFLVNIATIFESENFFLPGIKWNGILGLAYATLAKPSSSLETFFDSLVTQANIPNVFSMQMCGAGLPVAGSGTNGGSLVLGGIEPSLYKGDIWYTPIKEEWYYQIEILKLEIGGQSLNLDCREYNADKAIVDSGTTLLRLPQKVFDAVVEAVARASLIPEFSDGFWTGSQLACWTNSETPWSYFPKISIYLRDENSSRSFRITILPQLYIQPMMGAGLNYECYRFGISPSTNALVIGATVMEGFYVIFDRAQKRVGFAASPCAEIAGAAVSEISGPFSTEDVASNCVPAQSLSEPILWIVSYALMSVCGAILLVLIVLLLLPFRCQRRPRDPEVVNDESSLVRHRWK

[3] = Table 10, comparison with WO2012/085038 compounds, read-out: IC50 (nM), BACE1 biochemical FRET based assay
[4] = recombinant BACE1, 450 min, pH 5.0, read-out: BACE1 Biochemical FRET based assay pIC50 (converted)

T1 sequence (P56817 46-501): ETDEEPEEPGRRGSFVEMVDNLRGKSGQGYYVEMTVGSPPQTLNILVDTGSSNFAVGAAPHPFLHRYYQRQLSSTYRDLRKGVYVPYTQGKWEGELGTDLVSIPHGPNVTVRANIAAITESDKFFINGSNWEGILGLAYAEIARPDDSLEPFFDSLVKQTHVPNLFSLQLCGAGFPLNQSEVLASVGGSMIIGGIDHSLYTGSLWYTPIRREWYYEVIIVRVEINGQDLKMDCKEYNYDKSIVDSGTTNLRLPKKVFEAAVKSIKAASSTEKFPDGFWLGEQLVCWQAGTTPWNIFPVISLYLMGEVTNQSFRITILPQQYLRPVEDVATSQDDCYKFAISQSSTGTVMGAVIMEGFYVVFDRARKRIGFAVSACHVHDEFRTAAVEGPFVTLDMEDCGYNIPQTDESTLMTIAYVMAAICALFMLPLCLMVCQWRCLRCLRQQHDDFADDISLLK

Structure (SMILES) | IC50 (BACE1; [3]) | IC50 (BACE1; [4]) | IC50 [1] | IC50 [2] | IC50 (BACE2) | Cellular αLisa assay in SKNBE2 cells Abeta 42 pIC50 [1] | Cellular αLisa assay in SKNBE2 cells Abetatotal pIC50 [2]
C[C@@]1(c2cc(NC(=O)c3ccc(Cl)cn3)ccc2F)Cn2c(cnc2C(F)F)C(N)=N1 [Compound 11, N-{3-[(6R)-8-amino-3-(difluoromethyl)-6-methyl-5,6-dihydroimidazo[1,5-a]pyrazin-6-yl]-4-fluoropheny}-5-chloropyridine-2-carboxamide] | 3.16 nM | 3.16 nM | 0.575 nM | 0.631 nM | 2.75 nM | – | –
C[C@@]1(c2cc(NC(=O)c3ccc(C#N)cn3)ccc2F)Cn2c(cnc2C#N)C(N)=N1 [Compound 9, N-{3-[(6R)-8-Amino-3-cyano-6-methyl-5,6-dihydroimidazo[1,5-a]pyrazin-6-yl]-4-fluorophenyl}-5-cyanopyridine-2-carboxamide] | – | 1.45 nM | 2 nM | 2.24 nM | 2.14 nM | – | –
COc1cnc(C(=O)Nc2ccc(F)c([C@]3(C)Cn4cncc4C(N)=N3)c2)cn1 [Compound 1, N-{3-[(6R)-8-Amino-6-methyl-5,6-dihydroimidazo[1,5-a]pyrazin-6-yl]-4-fluorophenyl}-5-methoxypyrazine-2-carboxamide] | – | 4.9 nM | 3.31 nM | 2.75 nM | 55 nM | – | –
C[C@@]1(c2cc(NC(=O)c3ccc(F)cn3)ccc2F)Cn2cncc2C(N)=N1 [Compound 8, N-{3-[(6R)-8-amino-6-methyl-5,6-dihydroimidazo[1,5-a]pyrazin-6-yl]-4-fluorophenyl}-5-fluoropyridine-2-carboxamide] | – | 22.4 nM | 19.1 nM | 17.4 nM | 12.6 nM | – | –
C[C@@]1(c2cc(NC(=O)c3ccc(Cl)cn3)ccc2F)Cn2cncc2C(N)=N1 [Compound 3, N-{3-[(6R)-8-amino-6-methyl-5,6-dihydroimidazo[1,5-a]pyrazin-6-yl]-4-fluorophenyl}-5-chloropyridine-2-carboxamide] | 3.16 nM | 3.16 nM | 2.95 nM | 2.34 nM | 4.07 nM | – | –
C[C@@]1(c2cc(-c3cncnc3)ccc2F)Cn2cncc2C(N)=N1 [Compound 2, (6R)-6-(2-Fluoro-5-pyrimidin-5-ylphenyl)-6-methyl-5,6-dihydroimidazo[1,5-a]pyrazin-8-amine] | – | 708 nM | 245 nM | 229 nM | 7240 nM | – | –
C[C@@]1(c2cc(NC(=O)c3ccc(C#N)cn3)ccc2F)Cn2c(C(F)F)cnc2C(N)=N1 [75 (WO2012/085038), reference compound] | 13.8 nM | – | – | – | – | – | –
COc1cnc(C(=O)Nc2ccc(F)c(C3(CF)Cn4cncc4C(N)=N3)c2)cn1 (single isomer, unassigned) [Compound 15, N-{3-[8-amino-6-(fluoromethyl)-5,6-dihydroimidazo[1,5-a]pyrazin-6-yl]-4-fluorophenyl}-5-methoxypyrazine-2-carboxamide (S or R)] | – | 2.24 nM | – | – | 37.2 nM | 8.74 | 8.74
COc1cnc(C(=O)Nc2ccc(F)c([C@]3(C)Cn4c(cnc4C(F)F)C(N)=N3)c2)cn1 [Compound 12, N-{3-[(6R)-8-amino-3-(difluoromethyl)-6-methyl-5,6-dihydroimidazo[1,5-a]pyrazin-6-yl]-4-fluoropheny}-5-methoxypyrazine-2-carboxamide] | 3.8 nM | 3.8 nM | 0.813 nM | 0.851 nM | 24 nM | – | –
COc1cnc(C(=O)Nc2ccc(F)c(C3(CF)Cn4cncc4C(N)=N3)c2)cn1 (single isomer, unassigned) [Compound 14, N-{3-[8-amino-6-(fluoromethyl)-5,6-dihydroimidazo[1,5-a]pyrazin-6-yl]-4-fluorophenyl}-5-methoxypyrazine-2-carboxamide (R or S)] | – | 933 nM | – | – | 5370 nM | 6.07 | 6.06
Cc1cc(C#N)cnc1C(=O)Nc1ccc(F)c([C@]2(C)Cn3cncc3C(N)=N2)c1 [Compound 7, N-{3-[(6R)-8-amino-6-methyl-5H-imidazo[1,5-a]pyrazin-6-yl]-4-fluoro-phenyl}-5-cyano-3-methyl-pyridine-2-carboxamide] | – | 3.98 nM | 6.17 nM | 5.5 nM | 8.13 nM | – | –
Cc1ncn2c1C(N)=N[C@](C)(c1cc(-c3cncnc3)ccc1F)C2 [Compound 6, (6R)-6-(2-Fluoro-5-pyrimidin-5-ylphenyl)-1,6-dimethyl-5,6-dihydroimidazo[1,5-a]pyrazin-8-amine] | – | > 10000 nM | > 10000 nM | > 10000 nM | – | – | –
C[C@@]1(c2cc(NC(=O)c3ccc(C#N)cn3)ccc2F)Cn2c(cnc2C(F)F)C(N)=N1 [Compound 10, N-{3-[(6R)-8-amino-3-(difluoromethyl)-6-methyl-5,6-dihydroimidazo[1,5-a]pyrazin-6-yl]-4-fluorophenyl}-5-cyanopyridine-2-carboxamide] | 3.47 nM | 3.47 nM | 0.955 nM | 1.07 nM | 15.8 nM | – | –
CC(=O)NCc1ncc2n1C[C@@](C)(c1cc(NC(=O)c3ccc(C#N)cn3)ccc1F)N=C2N [Compound 17, N-(3-{(6R)-3-[(Acetylamino)methyl]-8-amino-6-methyl-5,6-dihydroimidazo[1,5-a]pyrazin-6-yl}-4-fluorophenyl)-5-cyanopyridine-2-carboxamide] | – | 1.86 nM | 4.79 nM | 5.25 nM | – | – | –
C[C@@]1(c2cc(NC(=O)c3ccc(Cl)cn3)ccc2F)Cn2c(C(F)F)cnc2C(N)=N1 [74 (WO2012/085038), reference compound] | 18.6 nM | – | – | – | – | – | –
C[C@@]1(c2cc(NC(=O)c3ccc(C#N)cn3)ccc2F)Cn2c(cnc2CC2CC2)C(N)=N1 [Compound 16, N-{3-[(6R)-8-Amino-3-(cyclopropylmethyl)-6-methyl-5,6-dihydroimidazo[1,5-a]pyrazin-6-yl]-4-fluorophenyl}-5-cyanopyridine-2-carboxamide] | – | 1.38 nM | 1.91 nM | 2.14 nM | 9.55 nM | – | –
COc1cnc(C(=O)Nc2ccc(F)c([C@]3(C)Cn4c(C(F)F)cnc4C(N)=N3)c2)cn1 [76 (WO2012/085038), reference compound] | 83.2 nM | – | – | – | – | – | –
COc1cnc(C(=O)Nc2ccc(F)c(C3(CF)Cn4cncc4C(N)=N3)c2)cn1 (racemic) [Compound 13, (rac)-N-{3-[8-Amino-6-(fluoromethyl)-5,6-dihydroimidazo[1,5-a]pyrazin-6-yl]-4-fluorophenyl}-5-methoxypyrazine-2-carboxamide] | – | 8.32 nM | 3.63 nM | 3.63 nM | 93.3 nM | – | –
